d = 2'-deoxy (DNA); r = 2'-OH (RNA)
Assays:
HeyA8 cells = assay: Cytotoxicity assay (MTT), HeyA8; format: cell-based, human; settings: HeyA8; siRNA 48 hours before docetaxel; at 50% cytotoxicity
Procedure: The medium was exchanged after 48 hours with increasing concentrations of docetaxel (obtained from Aventis Pharma, Bridgewater, N.J.) dissolved in ethanol (final concentration range, 0.1-10,000 nmol/L prepared in medium) or cisplatin (purchased from LKT Laboratories, Inc., St. Paul, Minn.) dissolved in water. After a 96-hour incubation, 50 μL of 0.15% 3-(4,5-dimethylthiazol-2-yl)-2,5-diphenyltetrazolium bromide was added to each well and incubated for 2 hours. The supernatant was removed, and cells were dissolved in 100 μL DMSO. The absorbance at 570 nm was recorded using a FALCON microplate reader (Becton Dickinson Labware, Bedford, Mass.), and cell survival expressed as a percent increase or decrease above control conditions, after subtracting blank A570 readings. The IC50 concentration was determined by finding the A570 reading midpoint between maximal and minimal readings and finding the chemotherapy concentration that intersects the growth curve at that A570 reading.

Murine FAK = assay: FAK siRNA treatment of murine endothelial cells; format: cell-based, mouse; settings: murine endothelial cells from the ovary of ImmortoMice
From the text: To determine potential mechanisms underlying the efficacy of anti-FAK based therapy, its effects on several biological endpoints were examined, including angiogenesis (MVD), proliferation (PCNA), and apoptosis (TUNEL). Due to growing evidence related to FAK and tumor angiogenesis (Kornberg et al., 2004; Mitra et al., 2005). The inventors evaluated vessel density (FIG. 14B) in the tumors harvested from the studies described above. […] To determine if FAK siRNA mediated in vivo effects on endothelial cells were direct, the inventors treated murine endothelial cells isolated from the ovary of ImmortoMice (H-2k(b)-ts A58) (Langley et al., 2003) with FAK siRNA. Murine FAK levels were not altered by the FAK siRNA used for the in vivo studies (data not shown).

## FAK siRNA: sense r(CCACCUGGGCCAGUAUUAU)d(TT), antisense r(AUAAUACUGGCCCAGGUGG)d(TT); for in vivo delivery incorporated into DOPC (sense CCACCUGGGCCAGUAUUAUTT; antisense AUAAUACUGGCCCAGGUGGTT; sugars from the 5' end r19 d2, backbone not given here)
HeyA8 cells
  fold greater docetaxel cytotoxicity after FAK down-regulation: 8 fold
Murine FAK
  Murine FAK levels: not altered

From patent publication US8895717B2, “Delivery of siRNA by neutral lipid compositions” (The Board of Regents of the University of Texas System, priority 2005, dated 2014)
